Consider 13 compounds from patent US20140235626A1, “PYRIDINE DERIVATIVES AND A PHARMACEUTICAL COMPOSITION FOR INHIBITING BACE1 CONTAINING THEM” (SHIONOGI & CO., LTD., priority 2011, published 2014).

Structures are written as SMILES. Where two headings read alike, the source gives them in different places. A value given as a limit tells only on which side of the number the result lay.

One series deals with T1, CYP3A4 (Homo sapiens, UniProt P08684).
T1 construct: host or cells: Escherichia coli (printed 'Escherichia cob')
The series is described as follows: CYP3A4 fluorescent MBI test. To be noted: substrate 7-BFC; pre-reaction time 0 or 30 minutes; compound 0.625-20 μmol/L. Format: in vitro ADME. As for the experimental part: The CYP3A4 fluorescent MBI test is a test of investigating enhancement of CYP3A4 inhibition of a compound by a metabolism reaction. 7-benzyloxytrifluoromethylcoumarin (7-BFC) is debenzylated by the CYP3A4 enzyme (enzyme expressed in Escherichia cob) and 7-hydroxytrifluoromethylcoumarin (7-HFC) is produced as a fluorescing metabolite. The test is performed using 7-HFC production reaction as an index.
The reaction conditions are as follows: substrate, 5.6 […], 7-BFC; pre-reaction time, 0 or 30 minutes; reaction time, 15 minutes; reaction temperature, 25° C. […]
An enzyme in a K-Pi buffer (pH 7.4) and a compound of the present invention solution as a pre-reaction solution were added to a 96-well plate at the composition of the pre-reaction. […] Fluorescent values of 7-HFC as a metabolite were measured in each index reaction plate with a fluorescent plate reader (Ex=420 nm, Em=535 nm).
The sample adding DMSO to a reaction system instead of compound of the present invention solution is adopted as a control (100%) because DMSO is used as a solvent to dissolve a compound of the present invention. Remaining activity (%) was calculated at each concentration of the compound of the present invention added as the solution, and IC50 was calculated by reverse-presumption by a logistic model using a concentration and an inhibition rate. […]

In the next series the target is T2, Recombinant human BACE-1 (Homo sapiens, UniProt P56817).
T2 construct: purchased R&D Systems
The experiment in a line: Assay of BACE-1 inhibiting activity. Format: biochemical. As to conditions: Recombinant human BACE-1 7.4 nmol/L, substrate peptide 18 nmol/L, pH 5.0, 30° C., 3.5 hours; read-out: IC50 value (50% inhibitory concentration against the enzymatic activity). As for the experimental part: 48.5 μL of substrate peptide solution (Biotin-XSEVNLDAEFRHDSGC-Eu: X=ε-amino-n-capronic acid, Eu=Europium cryptate) was added to each well of 96-hole half-area plate (a black plate: Costar), and after addition of 0.5 μl of the compound of the present invention (DMSO solution) and 1 μl of Recombinant human BACE-1 (R&D Systems), the reaction mixture was incubated at 30° C. for 3.5 hours. The substrate peptide was synthesized by reacting Cryptate TBPCOOH mono SMP (CIS bio international) with Biotin-XSEVNLDAEFRHDSGC (Peptide Institute, Inc.). The final concentrations of the substrate peptide and Recombinant human BACE-1 were adjusted to 18 nmol/L and 7.4 nmol/L, respectively, and the reaction was performed in sodium acetate buffer (50 mmol/L sodium acetate, pH 5.0, 0.008% Triton X-100).
After the incubation for reaction, 50 μl of 8.0 μg/ml Streptavidin-XL665 (CIS bio international) dissolved in phosphate buffer (150 mmol/L K2HPO4—KH2PO4, pH 7:0, 0.008% Triton X-100, 0.8 mol/L KF) was added to each well and left stand at 30° C. for 45 minutes. After then, fluorescence intensity was measured (excitation wavelength: 320 nm, measuring wavelength: 620 nm and 665 nm) using Wallac 1420 multilabel counter (Perkin Elmer life sciences). Enzymatic activity was determined from counting ratio of each wavelength (10,000×Count 665/Count 620) and 50% inhibitory concentration against the enzymatic activity (IC50) was calculated.

A short description of series [1]: BA test (oral absorption). It counts as in vivo, mouse or SD rat. To be noted: plasma; from AUCs of oral (1 to 30 mg/kg) and intravenous (0.5 to 10 mg/kg) administration groups. As to the method: Materials and Methods for Studies on Oral Absorption (1) Animal: mouse or SD rat (2) Breeding conditions: mouse or SD rat is allowed free access to the sterilized tap water and the solid food. […] (6) Evaluation items: blood was collected at the scheduled time, and the plasma concentration of the compound of the present invention was measured by LC/MS/MS (7) Statistical analysis: regarding the transition of the plasma concentration of the compound of the present invention, the area under the plasma concentration-time curve (AUC) was calculated by non-linear least squares program WinNonlin (Registered trademark), and the bioavailability (BA) of the compound of the present invention was calculated from the AUCs of the oral administration group and intravenous administration group

The nature of series [2]: Metabolism stability test. Format: in vitro ADME. To be noted: pooled human liver microsomes 0.5 mg protein/mL, 1 mmol/L NADPH, 37° C., 30 minutes; 0 minute = 100%. As for the experimental part: Using a commercially available pooled human liver microsomes, a compound of the present invention is reacted for a constant time, a remaining rate is calculated by comparing a reacted sample and an unreacted sample, thereby, a degree of metabolism in liver was assessed.
A reaction was performed (oxidative reaction) at 37° C. for 0 minute or 30 minutes in the presence of 1 mmol/L NADPH in 0.2 mL of a buffer (50 mmol/L Tris-HCl pH 7.4, 150 mmol/L potassium chloride, 10 mmol/L magnesium chloride) containing 0.5 mg protein/mL of human liver microsomes. After the reaction, 50 μL of the reaction solution was added to 100 μL of a methanol/acetonitrile=1/1 (v/v), mixed and centrifuged at 3000 rpm for 15 minutes. The compound of the present invention in the supernatant was quantified by LC/MS/MS, and a remaining amount of the compound of the present invention after the reaction was calculated, letting a compound amount at 0 minute reaction time to be 100%.
In general terms: Microsomes from liver hold many membrane-bound enzymes, among them those of drug oxidation.

The nature of series [3]: Solubility test (turbidity, JP-I, JP-II). To be noted: kinetic from dmso stock, 2% DMSO, turbidity after 4 hours. Format: physicochemical. As for the experimental part:
A 2-fold dilution series (12 points) of a 10 mM solution of a compound of the present invention in DMSO was added to a medium (JP-I, JP-II) (2%), and solubility was assessed by 3 stages (High; >40 μM, Medium; 3-40 μM, Low; <3 μM) from a turbidity after 4 hours.

T2 sequence (P56817 46-501): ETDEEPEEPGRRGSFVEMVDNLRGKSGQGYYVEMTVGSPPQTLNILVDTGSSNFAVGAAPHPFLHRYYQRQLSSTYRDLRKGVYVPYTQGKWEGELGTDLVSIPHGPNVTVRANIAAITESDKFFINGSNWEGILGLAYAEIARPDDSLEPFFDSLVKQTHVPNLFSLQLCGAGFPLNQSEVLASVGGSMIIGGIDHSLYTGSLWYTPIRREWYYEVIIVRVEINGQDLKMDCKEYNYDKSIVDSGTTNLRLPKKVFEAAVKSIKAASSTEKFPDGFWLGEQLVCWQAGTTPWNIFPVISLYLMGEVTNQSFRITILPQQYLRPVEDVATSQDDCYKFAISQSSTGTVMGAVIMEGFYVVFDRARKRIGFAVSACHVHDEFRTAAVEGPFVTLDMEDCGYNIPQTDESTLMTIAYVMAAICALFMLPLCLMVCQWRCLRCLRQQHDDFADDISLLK
T1 sequence (P08684 whole entry): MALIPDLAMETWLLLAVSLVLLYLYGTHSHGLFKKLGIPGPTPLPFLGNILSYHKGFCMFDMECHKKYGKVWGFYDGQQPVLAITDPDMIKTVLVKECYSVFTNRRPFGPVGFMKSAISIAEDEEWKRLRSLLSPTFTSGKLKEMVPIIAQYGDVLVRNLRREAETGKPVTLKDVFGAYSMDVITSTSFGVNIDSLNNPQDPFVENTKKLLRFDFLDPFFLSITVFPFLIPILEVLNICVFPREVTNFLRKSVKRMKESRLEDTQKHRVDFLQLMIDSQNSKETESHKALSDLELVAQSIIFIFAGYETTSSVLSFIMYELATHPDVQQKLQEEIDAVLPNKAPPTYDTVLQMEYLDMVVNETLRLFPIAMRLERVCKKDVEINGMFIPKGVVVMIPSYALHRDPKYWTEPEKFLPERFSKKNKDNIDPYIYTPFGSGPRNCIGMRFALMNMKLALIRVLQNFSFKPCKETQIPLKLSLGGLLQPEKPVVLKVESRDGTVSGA

In the case of `C[C@@]1(c2cc(NC(=O)c3ccc(C#N)cn3)ccn2)CCSC(N)=N1` [Compound I-1], the “CYP3A4 MBI: difference between IC50 values with and without preincubation, positive (+) / negative (−)” value on CYP3A4 was “(−) (When the difference was 3 μM or less, this was defined as negative(−))”. Also, the IC50 at Recombinant human BACE-1 was at most 1000 nM.
As to `C[C@@]1(c2cc(NC(=O)c3cnc(OC(F)F)cn3)ccn2)C=CSC(N)=N1` [Compound I-2], on Recombinant human BACE-1, the IC50 turned out to be 33 nM.
Same read-out and setting: the value for `C#Cc1ccc(C(=O)Nc2ccnc([C@]3(C)CCSC(N)=N3)c2)nc1` [Compound I-8] was 78 nM.
The same measure, in the same setting: the value for `CC#Cc1ccc(C(=O)Nc2ccnc([C@]3(C)CCSC(N)=N3)c2)nc1` [Compound I-9] was at most 1000 nM.
By bioavailability is commonly meant dose-corrected exposure relative to a reference, in per cent. Read a low bioavailability as poor availability. Consider `C[C@@]1(c2cc(NC(=O)c3ccc(C#N)cn3)ccn2)C=CSC(N)=N1.O=C(O)C(O)C(O)C(=O)O` [Compound I-10], for which the bioavailability in series [1] stood at 96.7%. The IC50 at Recombinant human BACE-1 is at most 1000 nM.
As for `C=C1C[C@@](C)(c2cc(NC(=O)c3ccc(C(F)F)cn3)ccn2)N=C(N)S1` [Compound I-11], the IC50 on Recombinant human BACE-1 worked out at 48 nM.
As to `CC(F)(F)Oc1ccc(C(=O)Nc2ccnc([C@]3(C)C=CSC(N)=N3)c2)nc1` [Compound I-24], in series [2], the “remaining amount of the compound after the reaction” value worked out at 98%.
As usually defined, the solubility is the dissolved amount per volume that the medium holds. On to `COc1cnc(C(=O)Nc2ccnc([C@]3(C)C=CSC(N)=N3)c2)cn1` [Compound I-47], for which the solubility at 4 h was over 40 µM in series [3] (pH 1.2, simulated gastric fluid, medium JP-I, read-out: Solubility (3 stages) in JP-I) and over 40 µM in series [3] (pH 6.8, fassgf or other biorelevant, medium JP-II, read-out: Solubility (3 stages) in JP-II).
With `NC1=N[C@](CF)(c2cc(NC(=O)c3cnc(C(F)F)cn3)ccn2)CCS1` [Compound I-246], on Recombinant human BACE-1, the IC50 is at most 1000 nM.
With `C[C@@]1(c2cc(NC(=O)c3ccccn3)ccn2)CCSC(N)=N1` [Compound I-272], the IC50 on Recombinant human BACE-1 is at most 1000 nM.
For the compound `C[C@@H]1C[C@@](C)(c2cc(NC(=O)c3ccccn3)ccn2)N=C(N)S1` [Compound I-273], the IC50 at Recombinant human BACE-1 is at most 1000 nM.
As to `Cc1cnc(C(=O)Nc2ccnc([C@]3(C)C[C@@H](C)SC(N)=N3)c2)cn1` [Compound I-293], the IC50 at Recombinant human BACE-1 is at most 1000 nM.
For the compound `C[C@@H]1C[C@@](C)(c2cc(NC(=O)c3cnccn3)ccn2)N=C(N)S1` [Compound I-294], the IC50 on Recombinant human BACE-1 was at most 1000 nM.
